In patent US7495013B2, “Chemical compounds” (AstraZeneca AB, priority 2004, dated 2009):
Structures can show the parent of a compound that is named as a salt.

molecular target: T1, human H1 receptor (Homo sapiens, UniProt P35367); test: Histamine H1 receptor binding, competition displacement of [3H]-pyrilamine; details: competition displacement of 1 nM [3H]-pyrlamine; 2 μg membranes from recombinant CHO-K1 cells expressing the human H1 receptor; 1 hour at room temperature; read-out: H1 pKi (converted)
T1 construct: purchased Euroscreen SA, Brussels, Belgium ES-390-M; host or cells: CHO-K1
T1 sequence (P35367 whole entry): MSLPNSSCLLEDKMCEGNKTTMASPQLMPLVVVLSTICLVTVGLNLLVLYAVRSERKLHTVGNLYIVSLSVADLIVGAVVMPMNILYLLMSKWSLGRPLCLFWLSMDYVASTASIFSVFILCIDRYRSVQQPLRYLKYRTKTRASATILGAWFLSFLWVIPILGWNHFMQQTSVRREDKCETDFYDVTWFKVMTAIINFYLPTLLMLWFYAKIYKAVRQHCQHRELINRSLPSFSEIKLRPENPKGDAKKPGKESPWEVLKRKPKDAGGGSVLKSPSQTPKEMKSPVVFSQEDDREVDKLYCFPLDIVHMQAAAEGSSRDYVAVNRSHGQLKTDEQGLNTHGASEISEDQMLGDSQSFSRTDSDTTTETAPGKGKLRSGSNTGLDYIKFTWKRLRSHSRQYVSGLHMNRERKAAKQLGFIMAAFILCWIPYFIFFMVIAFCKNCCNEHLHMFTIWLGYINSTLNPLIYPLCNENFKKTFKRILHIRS

Ki | Compound
63.1 nM | C[C@@H](c1ccccc1)[C@@H](C(=O)O)N1CCC(CN2CCC(Oc3ccc(Cl)c(Cl)c3)CC2)CC1 [Example 59, (αS)-4-[[4-(3,4-Dichlorophenoxy)-1-piperidinyl]methyl]-α-[(1S)-1-phenylethyl]-1-piperidineacetic acid]
126 nM | O=C(O)[C@H]([C@H](O)c1ccccc1)N1CCC(CN2CCC(Oc3ccc(Cl)c(Cl)c3)CC2)CC1 [Example 58, (αS)-4-[[4-(3,4-Dichlorophenoxy)-1-piperidinyl]methyl]-α-[(R)-hydroxyphenylmethyl]-1-piperidineacetic acid]
126 nM | O=C(O)[C@H](CCc1ccccc1)N1CCC(CN2CCC(Oc3ccc(Cl)c(Cl)c3)CC2)CC1 [Example 78, (αS)-4-[[4-(3,4-Dichlorophenoxy)-1-piperidinyl]methyl]-α-(2-phenylethyl)-1-piperidineacetic acid dihydrochloride]
63.1 nM | O=C(O)[C@H](CCc1ccccc1)N1CCC(CN2CCC(Oc3ccc(Cl)c(Cl)c3)CC2)CC1 [Example 66, (αS)-4-[[4-(3,4-Dichlorophenoxy)-1-piperidinyl]methyl]-α-(2-phenylethyl)-1-piperidineacetic acid]

Further lines, the molecule ahead of its results:

Compound | Ki
Cn1cncc1C[C@@H](C(=O)O)N1CCC(CN2CCC(Oc3ccc(Cl)c(Cl)c3)CC2)CC1 [Example 81, (αS)-4-[[4-(3,4-Dichlorophenoxy)-1-piperidinyl]methyl]-α-[(1-methyl-1H-imidazol-5-yl)methyl]-1-piperidineacetic acid] | 398 nM
Cc1c(Cl)ccc(OC2CCN(CC3CCN([C@@H](Cc4ccccc4)C(=O)O)CC3)CC2)c1Cl [Example 37, (αS)4-[[4-(2,4Dichloro-3-methylphenoxy)-1-piperidinyl]methyl]-α-(phenylmethyl)-1-piperidineacetic acid] | 31.6 nM
Cc1c(Cl)ccc(OC2CCN(CC3CCN([C@@H](Cc4ccccc4)C(=O)O)CC3)CC2)c1Cl [Example 71, (αS)-4-[[4-(2,4-Dichloro-3-methylphenoxy-1-piperidinyl]methyl]-α-(phenylmethyl)-1-piperidineacetic acid, dihydrochloride salt] | 158 nM
O=C(O)[C@H](Cc1cccs1)N1CCC(CN2CCC(Oc3ccc(Cl)c(Cl)c3)CC2)CC1 [Example 80, (αS)-4-[[4-(3,4Dichlorophenoxy)-1-piperidinyl]methyl]-α-(2-thienylmethyl)-1-piperidineacetic acid] | 251 nM
O=C(O)[C@H](Cc1cccnc1)N1CCC(CN2CCC(Oc3ccc(Cl)c(Cl)c3)CC2)CC1 [Example 42, (αS)-α-[4-[[4-(3,4-Dichlorophenoxy)-1-piperidinyl]methyl]-1-piperidinyl]-3-pyridinepropanoic acid] | 50.1 nM
Cc1c(OC2CCN(CC3CCN([C@@H](Cc4cccc(C#N)c4)C(=O)O)CC3)CC2)ccc(Cl)c1Cl [Example 57, (αS)-α-[(3-Cyanophenyl)methyl]-4-[[4-(3,4-dichloro-2-methylphenoxy)-1-piperidinyl]methyl]-1-piperidineacetic acid] | 20 nM
Cc1c(OC2CCN(CC3CCN([C@@H](Cc4ccccc4C#N)C(=O)O)CC3)CC2)ccc(Cl)c1Cl [Example 56, (αS)-α-[(2-Cyanophenyl)methyl]-4-[[4-(3,4-dichloro-2-methylphenoxy)-1-piperidinyl]methyl]-1-piperidineacetic acid] | 12.6 nM
